Read-outs that look alike come from different tables or passages of the source.
Biological target: T1, human M2 receptor (Homo sapiens, UniProt P08172)
T1 sequence (P08172 1-466): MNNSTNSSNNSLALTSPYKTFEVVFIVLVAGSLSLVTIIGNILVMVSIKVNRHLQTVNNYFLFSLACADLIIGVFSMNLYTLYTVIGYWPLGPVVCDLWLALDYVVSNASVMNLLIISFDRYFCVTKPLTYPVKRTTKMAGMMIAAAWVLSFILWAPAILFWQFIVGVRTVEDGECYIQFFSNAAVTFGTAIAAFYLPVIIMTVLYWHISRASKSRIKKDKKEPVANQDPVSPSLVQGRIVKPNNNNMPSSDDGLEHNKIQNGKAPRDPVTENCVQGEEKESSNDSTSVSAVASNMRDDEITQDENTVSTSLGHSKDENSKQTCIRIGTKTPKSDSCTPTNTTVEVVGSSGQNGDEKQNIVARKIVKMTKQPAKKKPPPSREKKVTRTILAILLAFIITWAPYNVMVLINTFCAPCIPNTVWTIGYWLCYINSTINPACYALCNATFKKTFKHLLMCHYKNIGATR
Details: for Emax: read-out: Efficiency, boosting of the acetylcholine effect at EC20 acetylcholine concentration; for Efficiency: boosting of the acetylcholine effect at EC20 acetylcholine concentration

[1] = Receptor activity EC50, allosteric potency at EC20 acetylcholine, M2-GIRK1/4 reporter cells, in some cases mean of two or more determinations
[2] = Receptor activity EC50, M2-GIRK1/4 activation test, acetylcholine at EC20, allosteric potency, in some cases mean values from two or more determinations

O=C(NC(CC(F)(F)F)C(F)(F)F)c1cn(-c2c(F)cc(F)cc2F)c2nc(N3CCNC3=O)ccc2c1=O (racemic) [Example 586, N-[1,1,1,4,4,4-Hexafluorobutan-2-yl]-4-oxo-7-(2-oxoimidazolidin-1-yl)-1-(2,4,6-trifluorophenyl)-1,4-dihydro-1,8-naphthyridine-3-carboxamide]
EC50 [1]: 15 nM
Emax (M2-GIRK1/4 reporter cells): 100%

CC[C@@H](NC(=O)c1cn(-c2ccc(F)cc2F)c2nc(N3CCOC(C(F)F)C3)ccc2c1=O)C(F)(F)F (single isomer, unassigned) [Example 264]
EC50 [2]: 530 nM

CCC(NC(=O)c1cn(-c2c(F)cc(F)cc2F)c2nc(N3C[C@@H](O)CC3=O)ccc2c1=O)C(C)C (single isomer, unassigned) [Example 485]
EC50 [1]: 6 nM
Emax (M2-GIRK1/4 reporter cells): 100%

CC(C)(NC(=O)c1cn(-c2c(F)cc(F)cc2F)c2nc(N3C[C@@H](O)[C@H](O)C3)ccc2c1=O)C(F)(F)F [Example 403]
EC50 [1]: 32 nM
Emax (M2-GIRK1/4 reporter cells): 100%

CN(C)c1ccc2c(=O)c(C(=O)NCc3c(Cl)cccc3Cl)cn(-c3ccc(F)cc3F)c2n1 [Example 49, N-(2,6-Dichlorobenzyl)-1-(2,4-difluorophenyl)-7-(dimethylamino)-4-oxo-1,4-dihydro-1,8-naphthyridine-3-carboxamide]
EC50 [2]: 89 nM

CCC(COC(F)(F)F)NC(=O)c1cn(-c2c(F)cc(F)cc2F)c2nc(N3C[C@@H](C)NC3=O)ccc2c1=O (mixture of isomers) [Example 453, 7-[(4R)-4-Methyl-2-oxoimidazolidin-1-yl]-4-oxo-N-[(2S)-1-(trifluoromethoxy)butan-2-yl]-1-(2,4,6-trifluorophenyl)-1,4-dihydro-1,8-naphthyridine-3-carboxamide]
EC50 [1]: 11 nM
Emax (M2-GIRK1/4 reporter cells): 98.5%

CC(NC(=O)c1cn(-c2ccc(F)cc2F)c2nc(N(C)C)ccc2c1=O)C(F)(F)F (racemic) [Example 147, rac-1-(2,4-Difluorophenyl)-7-(dimethylamino)-4-oxo-N-(1,1,1-trifluoropropan-2-yl)-1,4-dihydro-1,8-naphthyridine-3-carboxamide]
EC50 [2]: 82 nM

O=C(NC(CC(F)(F)F)C(F)(F)F)c1cn(-c2c(F)cc(F)cc2F)c2nc(N3CCNC3=O)ccc2c1=O (racemic) [Example 588, N-[1,1,1,4,4,4-Hexafluorobutan-2-yl]-4-oxo-7-(2-oxoimidazolidin-1-yl)-1-(2,4,6-trifluorophenyl)-1,4-dihydro-1,8-naphthyridine-3-carboxamide]
EC50 [1]: 9 nM
Efficiency (M2-GIRK1/4 reporter cells): 100.0%

CC[C@@H](NC(=O)c1cn(-c2ccc(F)cc2F)c2nc(N3CCC(C)C3=O)ccc2c1=O)C(F)(F)F (stereo partly drawn) [Example 431, 1-(2,4-Difluorophenyl)-7-[3-methyl-2-oxopyrrolidin-1-yl]-4-oxo-N-[(2R)-1,1,1-trifluorobutan-2-yl]-1,4-dihydro-1,8-naphthyridine-3-carboxamide]
EC50 [1]: 92 nM
Emax (M2-GIRK1/4 reporter cells): 98%

CC[C@@H](NC(=O)c1cn(-c2ccc(F)cc2F)c2nc(N3CCC(C)(O)C3=O)ccc2c1=O)C(F)(F)F (single isomer, unassigned) [Example 195]
EC50 [2]: 343 nM

CN(CCF)c1ccc2c(=O)c(C(=O)NC34CC5CC(CC(F)(C5)C3)C4)cn(-c3ccc(F)cc3F)c2n1 [Example 102, 1-(2,4-Difluorophenyl)-7-[(2-fluoroethyl)(methyl)amino]-N-(3-fluorotricyclo[3.3.1.1^3,7]dec-1-yl)-4-oxo-1,4-dihydro-1,8-naphthyridine-3-carboxamide]
EC50 [2]: 31 nM

O=C(NC12CC(F)(C1)C2)c1cn(-c2c(F)cc(F)cc2F)c2nc(N3C[C@@H](O)CC3=O)ccc2c1=O [Example 367, N-(3-Fluorobicyclo[1.1.1]pent-1-yl)-7-[(4S)-4-hydroxy-2-oxopyrrolidin-1-yl]-4-oxo-1-(2,4,6-trifluorophenyl)-1,4-dihydro-1,8-naphthyridine-3-carboxamide]
EC50 [2]: 100 nM

CCC(COC(F)(F)F)NC(=O)c1cn(-c2c(F)cc(F)cc2F)c2nc(N3CCNC3=O)ccc2c1=O (racemic) [Example 611, 4-Oxo-7-(2-oxoimidazolidin-1-yl)-N-[1-(trifluoromethoxy)butan-2-yl]-1-(2,4,6-trifluorophenyl)-1,4-dihydro-1,8-naphthyridine-3-carboxamide]
EC50 [1]: 17 nM
Efficiency (M2-GIRK1/4 reporter cells): 90.0%

CC[C@@H](NC(=O)c1cn(-c2ccc(F)cc2F)c2nc(N3CC(C)CC3=O)ccc2c1=O)C(F)(F)F (single isomer, unassigned) [Example 303]
EC50 [2]: 60 nM

CC[C@@H](NC(=O)c1cn(-c2ccc(F)cc2F)c2nc(N3C(=O)CCC3C)ccc2c1=O)C(F)(F)F (single isomer, unassigned) [Example 428]
EC50 [1]: 72 nM
Efficiency (M2-GIRK1/4 reporter cells): 86.0%

O=C(NC(c1c(F)cccc1F)C(F)(F)F)c1cn(-c2ccc(F)cc2F)c2nc(N3CCCC(O)C3=O)ccc2c1=O (single isomer, unassigned) [Example 251, 1-(2,4-Difluorophenyl)-N-[1-(2,6-difluorophenyl)-2,2,2-trifluoroethyl]-7-[3-hydroxy-2-oxopiperidin-1-yl]-4-oxo-1,4-dihydro-1,8-naphthyridine-3-carboxamide]
EC50 [2]: 163 nM

CC[C@H](NC(=O)c1cn(-c2c(F)cc(F)cc2Cl)c2nc(N3C(=O)CC[C@@H]3CO)ccc2c1=O)C(F)(F)F [Example 430, 1-(2-Chloro-4,6-difluorophenyl)-7-[(2R)-2-(hydroxymethyl)-5-oxopyrrolidin-1-yl]-4-oxo-N-[(2)-1,1,1-trifluorobutan-2-yl]-1,4-dihydro-1,8-naphthyridine-3-carboxamide]
EC50 [1]: 61 nM
Emax (M2-GIRK1/4 reporter cells): 90%

CC[C@@H](NC(=O)c1cn(-c2ccc(F)cc2F)c2nc(N3C[C@@H](C(=O)OC)OC3=O)ccc2c1=O)C(F)(F)F [Example 257, Methyl (5S)-3-[8-(2,4-difluorophenyl)-5-oxo-6-{[(2R)-1,1,1-trifluorobutan-2-yl]carbamoyl}-5,8-dihydro-1,8-naphthyridin-2-yl]-2-oxo-1,3-oxazolidine-5-carboxylate]
EC50 [2]: 138 nM

O=C(NC12CC3CC(CC(C3)C1)C2)c1cn(-c2ccc(F)cc2F)c2nc(N3CCCC(CCO)C3)ccc2c1=O (centres unmarked) [Example 17, 1-(2,4-Difluorophenyl)-7-[3-(2-hydroxyethyl)piperidin-1-yl]-4-oxo-N-(tricyclo[3.3.1.1^3,7]dec-1-yl)-1,4-dihydro-1,8-naphthyridine-3-carboxamide]
EC50 [2]: 159 nM

O=C(N[C@H](C1CC1)C(F)(F)F)c1cn(-c2c(F)cc(F)cc2F)c2nc(N3CC4CC4(O)C3)ccc2c1=O (stereo partly drawn) [Example 405, N-[(1R)-1-Cyclopropyl-2,2,2-trifluoroethyl]-7-[1-hydroxy-3-azabicyclo[3.1.0]hex-3-yl]-4-oxo-1-(2,4,6-trifluorophenyl)-1,4-dihydro-1,8-naphthyridine-3-carboxamide]
EC50 [1]: 8 nM
Emax (M2-GIRK1/4 reporter cells): 95.5%

O=C(Nc1c(Cl)cccc1Cl)c1cn(-c2c(F)cc(F)cc2F)c2nc(N3C[C@@H](O)[C@H](O)C3)ccc2c1=O [Example 585, N-(2,6-Dichlorophenyl)-7-[(3R,4R)-3,4-dihydroxypyrrolidin-1-yl]-4-oxo-1-(2,4,6-trifluorophenyl)-1,4-dihydro-1,8-naphthyridine-3-carboxamide]
EC50 [1]: 14 nM
Emax (M2-GIRK1/4 reporter cells): 95.5%

From patent US20190367516A1 (Bayer Pharma Aktiengesellschaft, priority 2015, published 2019)
